Read-outs that look alike come from different tables or passages of the source. Some results are limits rather than exact numbers.

In general, ΔTm refers to the shift of the melting midpoint relative to a reference.

Test [1] has as its target T1, AURKA (Homo sapiens, UniProt O14965).
T1 construct: purchased in-house thermal shift (DSF) kinase panel (SGC Frankfurt); Promega NanoBRET for AURKA/B/C
T1 sequence (O14965 122-403): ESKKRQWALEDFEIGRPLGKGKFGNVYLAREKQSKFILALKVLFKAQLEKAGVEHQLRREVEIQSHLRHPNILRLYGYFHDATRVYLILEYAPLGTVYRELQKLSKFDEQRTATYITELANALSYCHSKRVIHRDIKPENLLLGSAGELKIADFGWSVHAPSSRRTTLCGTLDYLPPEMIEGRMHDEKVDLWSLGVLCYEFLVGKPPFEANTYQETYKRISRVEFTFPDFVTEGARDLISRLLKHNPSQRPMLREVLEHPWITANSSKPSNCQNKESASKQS
The test is described as follows: Thermal shift assay. The class given is binding. Particulars: read-out: ΔTm AURKA.

Test [2] concerns ARID1A-deficient colorectal cancer cells. The arrangement: method as in PMID 30097580. Particulars: cited from earlier work.
Another test concerns MCD4 cells. The test is described as follows: F-actin stress fiber staining (phalloidin). The class given is cell-based, mouse. The settings on record: compound 30 µM, 1 h.
For test [3], the target named is T2, AURKA (Homo sapiens, UniProt O14965).
T2 construct: full-length wild-type AURKA, AURKB, and AURKC were obtained as plasmids cloned in frame with a C-terminal NanoLuc-fusion; host or cells: HEK293T
T2 sequence (O14965 1-403): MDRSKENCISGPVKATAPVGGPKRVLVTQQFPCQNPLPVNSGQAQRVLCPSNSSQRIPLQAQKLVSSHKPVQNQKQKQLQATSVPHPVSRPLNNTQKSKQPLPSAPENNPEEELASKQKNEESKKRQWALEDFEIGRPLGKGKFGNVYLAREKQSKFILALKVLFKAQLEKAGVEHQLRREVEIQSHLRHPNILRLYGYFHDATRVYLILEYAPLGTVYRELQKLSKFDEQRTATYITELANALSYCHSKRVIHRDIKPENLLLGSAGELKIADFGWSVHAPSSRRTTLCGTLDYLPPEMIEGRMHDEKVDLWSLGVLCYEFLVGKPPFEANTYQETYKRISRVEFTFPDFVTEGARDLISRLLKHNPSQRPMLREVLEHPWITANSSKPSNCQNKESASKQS
The experiment in a line: NanoBRET assay in HEK293T cells. The class given is cell-based.

The next test concerns the target T3, DYRK1A (Homo sapiens, UniProt Q13627).
T3 construct: purchased in-house thermal shift (DSF) kinase panel (SGC Frankfurt); Promega NanoBRET for AURKA/B/C
The experiment in a line: Thermal shift assay. The class given is binding. The settings on record: read-out: ΔTm DYRK1A.

Test [4] relates to CFL1 phosphorylation in primary IMCD cells. The test is described as follows: CFL1 phosphorylation, Western blotting. The class given is cell-based, rat. The settings on record: compound 20 µM, 1 h. (In western blotting, separated proteins are transferred to a membrane and probed.)
The test system of test [5] is AURKA. Particulars: cited from earlier work.
For test [6], the system named is complex of AURKA and TPX2. More on the design: method as in PMID 26732741. Particulars: cited from earlier work.
Another test relates to HCT116. More on the design: method as in PMID 19402633, PMID 30097580. The settings on record: colon cancer cell line HCT116; cited from earlier work.
The next test has as its target T4, AAK1 (Homo sapiens, UniProt Q2M2I8).
T4 construct: purchased in-house thermal shift (DSF) kinase panel (SGC Frankfurt); Promega NanoBRET for AURKA/B/C
The test is described as follows: Thermal shift assay. In kind it is binding. Particulars: read-out: ΔTm AAK1.

The next test deals with T5, ULK3 (Homo sapiens, UniProt Q6PHR2).
T5 construct: purchased in-house thermal shift (DSF) kinase panel (SGC Frankfurt); Promega NanoBRET for AURKA/B/C
T5 sequence (Q6PHR2 1-277): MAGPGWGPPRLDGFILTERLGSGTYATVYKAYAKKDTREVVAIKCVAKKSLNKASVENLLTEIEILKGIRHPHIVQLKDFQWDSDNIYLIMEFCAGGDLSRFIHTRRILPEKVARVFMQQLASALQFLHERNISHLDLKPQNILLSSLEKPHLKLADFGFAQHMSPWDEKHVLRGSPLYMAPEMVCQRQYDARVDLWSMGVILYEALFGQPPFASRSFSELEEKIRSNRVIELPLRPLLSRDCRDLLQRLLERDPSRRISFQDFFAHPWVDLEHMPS
The test is described as follows: Thermal shift assay. In kind it is binding. Particulars: read-out: ΔTm ULK3.

[7] abbreviates: NanoBRET, HEK293T cells overexpressing the kinase, Table 2, read-out: AURKA IC50.

T4 sequence (Q2M2I8 27-365): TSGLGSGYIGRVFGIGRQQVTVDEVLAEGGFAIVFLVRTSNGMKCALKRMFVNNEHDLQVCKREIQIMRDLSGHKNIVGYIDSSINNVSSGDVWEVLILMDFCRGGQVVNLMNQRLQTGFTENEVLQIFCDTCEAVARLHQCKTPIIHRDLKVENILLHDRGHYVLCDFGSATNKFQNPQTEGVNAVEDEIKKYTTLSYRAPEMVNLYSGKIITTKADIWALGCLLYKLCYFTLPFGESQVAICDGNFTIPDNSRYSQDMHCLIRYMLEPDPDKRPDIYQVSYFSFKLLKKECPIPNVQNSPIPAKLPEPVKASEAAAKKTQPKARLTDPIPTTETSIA

With `CCN1CCN(C(=O)Cc2ccc(Nc3ncc(F)c(Nc4ccc(C(=O)Nc5ccccc5Cl)cc4)n3)cc2)CC1` [Aurora-A inhibitor I, reference compound], the ΔTm at 10 µM on AURKA [1] was 15.2 °C; at DYRK1A, 0.4 °C; on AAK1, 2.3 °C; at ULK3, 7.6 °C. Further, the “cell cycle arrest, multinucleation and apoptosis” value in test [2] is “G2/M cell cycle arrest, multinucleation, and apoptosis”. Besides, the “effect on actin stress fibers” value with MCD4 cells is listed as “depolymerization of actin stress fibers”. For the same molecule, the figures for the IC50 on AURKA [3] and in the test with AURKA [5] (cell-free assay) were 183 nM and 3.4 nM, respectively. In test [4], the CFL1 phosphorylation entry was “Relatively low levels”. Further, the “selectivity for AURKA over AURKB” value in the test with AURKA [5] is 1000 fold. Moreover, in test [6], the “increase of binding to the AURKA-TPX2 complex” value is reported as 2.4 fold. The antiproliferative effects result in the test on HCT116 is recorded as “Antiproliferative effects”.

Turning to `O=C(Cc1ccc(Nc2ncc(F)c(Nc3ccc(C(=O)Nc4ccccc4Cl)cc3)n2)cc1)NCCN1CCOCC1` [ERJ2-04], the ΔTm at 10 µM on AURKA [1] (compound 10 µM, n = 3) was 13 °C; on DYRK1A (compound 10 µM, n = 3), -0.7 °C; on AAK1 (compound 10 µM, n = 3) it was 4.4 °C; at ULK3 (compound 10 µM, n = 3), 6.2 °C. In the test on MCD4 cells, the “effect on actin stress fibers” value is given as “Comparable effects”. Besides, the IC50 on AURKA [3] (NanoBRET, n = 2, mean, Figure 6B, read-out: affinity to intracellular AURKA) was 558 nM.

On to `NC(=O)Cc1ccc(Nc2ncc(F)c(Nc3ccc(C(=O)Nc4ccccc4Cl)cc3)n2)cc1` [ERJ2-06], for which the thermal shift (ΔTm) at 10 µM at AURKA [1] (compound 10 µM, n = 3) was found to be 15.5 °C; on DYRK1A (compound 10 µM, n = 3), 0.8 °C; on AAK1 (compound 10 µM, n = 3), 6.8 °C; on ULK3 (compound 10 µM, n = 3), 9.4 °C. Moreover, in the test on MCD4 cells, the “effect on actin stress fibers” value is “Comparable effects”. Moreover, the IC50 at AURKA [3] (setting [7]) amounted to 165 nM.

In the case of `CCN1CCN(C(=O)Cc2ccc(Nc3ncc(F)c(Nc4ccc(C(=O)Nc5ccccc5)cc4)n3)cc2)CC1` [ERJ2-11], the thermal shift (ΔTm) at 10 µM at AURKA [1] (compound 10 µM, n = 3) was 13.8 °C; at DYRK1A (compound 10 µM, n = 3), -0.6 °C; at AAK1 (compound 10 µM, n = 3), 7.3 °C; at ULK3 (compound 10 µM, n = 3) it was 9.8 °C. For the same molecule, the “effect on actin stress fibers” value with MCD4 cells was “promoted or maintained the formation of actin stress fibers”. In addition, the IC50 at AURKA [3] (setting [7]) worked out at 767 nM.

For `CCN1CCN(C(=O)Cc2ccc(Nc3ncc(F)c(Nc4ccc(C(=O)O)cc4)n3)cc2)CC1` [ERJ2-12], the ΔTm at 10 µM at AURKA [1] (compound 10 µM, n = 3) is 9.5 °C; on DYRK1A (compound 10 µM, n = 3) it was -1.3 °C; on AAK1 (compound 10 µM, n = 3), 3.8 °C; on ULK3 (compound 10 µM, n = 3), 4.3 °C. Besides, the “effect on actin stress fibers” value with MCD4 cells is on record as “resembled those of the control cells”. At AURKA [3] (setting [7]), the IC50 is above 50000 nM.

These data come from PMC8776063, “Aurora Kinase A Is Involved in Controlling the Localization of Aquaporin-2 in Renal Principal Cells” (International Journal of Molecular Sciences, 2022).
